From US20210244743A1 (priority 2020, published 2021) come the findings set out here.

One data set in a line: in vitro. Particulars: African green monkey.
The subject of another data set is SARS. In words: microbe, parasite or virus in culture. The class given is cell-based, SARS-CoV. Particulars: Severe acute respiratory syndrome coronavirus, Vero, read-out: average EC50 (50% virus inhibitory concentration).
For the next data set, the system named is SARS-CoV-2. In words: SARS-CoV-2 viral transcript levels by quantitative real-time PCR in Vero E6 cells. Particulars: for EC50: Severe acute respiratory syndrome coronavirus 2, Vero C1008, Vero E6 cells, compound added 3 hours after virus (100 TCID50), assayed 48 hours later, read-out: EC50, viral transcript copy number. The class given is cell-based. For orientation: Real-time PCR tracks product formation cycle by cycle.

In the next data set the test system is MERS. Kind of data set: microbe, parasite or virus in culture. The class given is cell-based, MERS-CoV. To be noted: Middle East respiratory syndrome-related coronavirus, Vero, read-out: average EC50 (50% virus inhibitory concentration).

As to `Cc1cccc(/C=N/Nc2cc(N3CCOCC3)nc(OCCc3ccccn3)n2)c1` [apilimod dimesylate], in “in vitro”, the CC50 was 20 µM. In addition, the EC50 turned out to be 3.7 µM in the data set on SARS, 2.2 µM in the data set with SARS-CoV-2 and 13.8 µM with MERS. In addition, the “selectivity index (CC50/EC50)” value in the data set with SARS-CoV-2 (SARS-CoV-2, Vero E6 cells) is 9.1.
In “in vitro”, `CCC(CC)COC(=O)[C@H](C)N[P@](=O)(OC[C@H]1O[C@@](C#N)(c2ccc3c(N)ncnn23)[C@H](O)[C@@H]1O)Oc1ccccc1` [remdesivir] returned a CC50 of 205 µM. Also, the EC50 in the data set with SARS-CoV-2 was determined as 0.7 µM.
